In US9605064B2, “Methods and compositions for treatment of skin disorders” (AbbVie Biotechnology Ltd, priority 2006, dated 2017):
Marks after values point to notes of the source that are not given here.

Experiments:
[1] = tested on: patients with moderate to severe plaque psoriasis; experiment: Adverse events and laboratory abnormalities, 12-week open-label weekly therapy then randomized eow or withdrawal
[2] = tested on: patients with moderate to severe chronic plaque psoriasis; experiment: DLQI, Phase II 12-week placebo-controlled trial with 48-week extension; type: in vivo, human; details: for Mean change in DLQI from baseline at Week 60: observed values; for DLQI = 0 / DLQI = 1 / DLQI = 2 / DLQI ≧ 3 / patients who achieved DLQI=0: pooled arms
From the text: The DLQI is a validated instrument used to measure disease impact on daily function.
The DLQI is a validated instrument used to assess dermatologic-related functional limitations, and was used as the patient related outcomes (PRO) measure. The DLQI consists of ten items and an overall scoring range of 0-30, where higher scores represent greater quality of life impairment and lower scores represent lower quality of life impairment. The DLQI also includes well-established properties of reliability and validity for the DLQI total score in a dermatology setting and measures six subcategories: symptoms and feelings, daily activities, leisure, work/school, personal relationships, and treatment.
Patients who discontinued before the time point were not included in this analysis. Ranges of DLQI scores were evaluated for their correspondence to categories of disease impact and are described below in Table 1.
PROs were assessed using the DLQI. The DLQI is a validated instrument used to assess dermatologic-related functional limitations.

[3] = tested on: patients with moderate to severe chronic plaque psoriasis; details: in vivo
From the text: The study was a multi-center, 16-week, randomized controlled Phase III trial. The main inclusion criteria included: • Clinical diagnosis of psoriasis for ≧1 year • Affected body surface area (BSA)≧10% • Psoriasis Area and Severity Index (PASI)≧10 The main exclusion criteria was previous use of MTX or systemic anti-TNF therapy.

[4] = tested on: patients with moderate to severe psoriasis; details: in vivo
Experimental: Laboratory parameters and adverse events were also recorded.

[5] = Double-blind period Weeks 12-24, 40 mg eow (N = 68)
[6] = Open-label period Weeks 0-11, 40 mg weekly (N = 148)
[7] = PASI 75-99 responders who had DLQI>0 at Week 60
[8] = PASI improvement 50-74 (n = 18), Week 60
[9] = PASI improvement 75-99 (n = 54), Week 60
[10] = PASI improvement 100 (n = 29), Week 60
[11] = PASI improvement <50 (n = 5), Week 60
[12] = patients with PASI 75-99, Week 60
[13] = patients with PASI 100, Week 60

In the case of “Adalimumab: a human anti-TNF mAb, described in U.S. Pat. No. 6,090,382 as D2E7 (HUMIRA, Abbott Laboratories)”, the “patients with serious adverse events” value ([1]; 24-week trial) is reported as “Four patients”, the “tuberculosis or other opportunistic infections, lymphoma, melanoma, other malignancies, demyelinating disorders, lupus-like syndromes, congestive heart failure” value ([1]; 24-week trial) is reported as “No patients developed” and the “Any AE” value [1, 5] is reported as 46 (67.6) n (%). For the same substance, the “Any AEs leading to discontinuation” value [1, 5] was 2 (2.9) n (%), the “Any SAE” value [1, 5] was 2 (2.9) n (%) and the Arthralgia [1, 5] was 5 (7.4) n (%). The Headache [1, 5] was 1 (1.5) n (%), the Injection site reaction [1, 5] was 4 (5.9) n (%) and the Nasopharyngitis [1, 5] was 3 (4.4) n (%). The “Any AE” value [1, 6] was 105 (70.9) n (%), the “Any AEs leading to discontinuation” value [1, 6] was 1 (0.7) n (%) and the “Any SAE” value [1, 6] was 2 (1.4) n (%). The Arthralgia [1, 6] was 4 (2.7) n (%), the Headache [1, 6] was 11 (7.4) n (%) and the Injection site reaction [1, 6] was 17 (11.5) n (%). The Nasopharyngitis [1, 6] was 11 (7.4) n (%), the “ALT elevation greater than 2.5 times the upper limit of normal” value ([1]; Week 12) was “No patients” and the “ALT elevation greater than 2.5 times the upper limit of normal” value ([1]; adalimumab eow group, Week 24) was “One patient”. For the same substance, the arthralgias ([1]; adalimumab eow group, Weeks 12-24) was 7.4%, the “patients who withdrew because of an adverse event” value ([1]; of the 148 patients who received at least one dose) was “three” and the “rebound (pre-specified definition)” value ([1]; three patients classified by investigators as rebounders) was “None of the three patients met the study's pre-specified definition of rebound”. For the same substance, the “patients with change from large/extremely large DLQI impact at baseline to no/small impact” value ([2]; 40 mg eow, week 12) was 85%, the “patients with change from large/extremely large DLQI impact at baseline to no/small impact” value ([2]; 40 mg eow, week 24) was 85% and the “patients with change from large/extremely large DLQI impact at baseline to no/small impact” value ([2]; 40 mg eow, week 36) was 83%. The “patients with change from large/extremely large DLQI impact at baseline to no/small impact” value ([2]; 40 mg eow, week 60) was 83%, the “mean change in DLQI” value ([2]; 40 mg weekly, Week 12) was −11.5* and the “patients with change from large/extremely large DLQI impact at baseline to no/small impact” value ([2]; 40 mg weekly, Week 12) was 86%. The “patients with change from large/extremely large DLQI impact at baseline to no/small impact” value ([2]; 40 mg weekly, week 24) was 88%, the “patients with change from large/extremely large DLQI impact at baseline to no/small impact” value ([2]; 40 mg weekly, week 36) was 91% and the “patients with change from large/extremely large DLQI impact at baseline to no/small impact” value ([2]; 40 mg weekly, week 60) was 100%. For the same substance, the “Mean change in DLQI from baseline at Week 60” value (shortened to “Mean change … at Week 60”) ([2]; PASI 50-74) was −8.8, the “Mean change … at Week 60” value ([2]; PASI 75-99) was −11.5 and the “embarrassment/self-consciousness because of skin condition” value [2, 7] was “approximately 20%”. The “persistent symptoms of itching, soreness, pain, or stinging of the skin” value [2, 7] was “approximately 50%”, the “Mean change … at Week 60” value ([2]; PASI 100) was −11.1 and the “Mean change … at Week 60” value ([2]; PASI <50) was −6.0. The “DLQI = 0” value [2, 8] was 5 (28) n (%), the “DLQI = 1” value [2, 8] was 3 (17) n (%) and the “DLQI = 2” value [2, 8] was 3 (17) n (%). For the same substance, the “DLQI ≧ 3” value [2, 8] was 7 (39) n (%), the “DLQI = 0” value [2, 9] was 20 (37) n (%) and the “DLQI = 1” value [2, 9] was 19 (35) n (%). The “DLQI = 2” value [2, 9] was 4 (7) n (%), the “DLQI ≧ 3” value [2, 9] was 11 (20) n (%) and the “DLQI = 0” value [2, 10] was 23 (79) n (%). The “DLQI = 1” value [2, 10] was 3 (10) n (%), the “DLQI = 2” value [2, 10] was 3 (10) n (%) and the “DLQI ≧ 3” value [2, 10] was 0 (0) n (%). The “DLQI = 0” value [2, 11] was 0 (0) n (%), the “DLQI = 1” value [2, 11] was 1 (20.0) n (%) and the “DLQI = 2” value [2, 11] was 2 (40) n (%). The “DLQI ≧ 3” value [2, 11] was 2 (40) n (%), the “mean change in DLQI” value ([2]; adalimumab-treated patients) was no less than 10 points and the “DLQI mean change from baseline” value ([2]; baseline PASI ≧10 and DLQI >10, 40 mg eow, Week 12) was −15. The “DLQI mean change from baseline” value ([2]; baseline PASI ≧10 and DLQI >10, 40 mg eow, Week 24) was −14, the “DLQI mean change from baseline” value ([2]; baseline PASI ≧10 and DLQI >10, 40 mg eow, Week 36) was −15 and the “DLQI mean change from baseline” value ([2]; baseline PASI ≧10 and DLQI >10, 40 mg eow, Week 60) was −15. The “DLQI mean change from baseline” value ([2]; baseline PASI ≧10 and DLQI >10, 40 mg weekly, Week 12) was −16, the “DLQI mean change from baseline” value ([2]; baseline PASI ≧10 and DLQI >10, 40 mg weekly, Week 24) was −17 and the “DLQI mean change from baseline” value ([2]; baseline PASI ≧10 and DLQI >10, 40 mg weekly, Week 36) was −18. The “DLQI mean change from baseline” value ([2]; baseline PASI ≧10 and DLQI >10, 40 mg weekly, Week 60) was −17, the “DLQI mean change from baseline” value ([2]; baseline PASI ≧10 and DLQI >10, placebo/adalimumab 40 mg eow, Week 24) was −12 and the “DLQI mean change from baseline” value ([2]; baseline PASI ≧10 and DLQI >10, placebo/adalimumab 40 mg eow, Week 36) was −14. For the same substance, the “DLQI mean change from baseline” value ([2]; baseline PASI ≧10 and DLQI >10, placebo/adalimumab 40 mg eow, Week 60) was −12, the “mean DLQI score” value ([2]; baseline PASI ≧10 and DLQI >10, weekly, Week 60) was 0.7 and the “Mean improvement in DLQI” value ([2]; from dosage escalation to Week 60, 18 of the 30 patients who switched to weekly dosing) was 2.1. For the same substance, the “patients who achieved DLQI=0” value ([2]; of the total 106 patients receiving adalimumab at Week 60) was 48 patients, the “patients who achieved DLQI=0” value ([2]; patients receiving adalimumab at Week 60) was “approximately 45%” and the “patients who achieved a DLQI=0” value ([2]; patients with 50-74, Week 60) was 28%. For the same substance, the “mean change in DLQI from baseline” value ([2]; patients with PASI 50-74, Week 60) was −8, the “mean change in DLQI from baseline” value [2, 12] was −11.5 and the “patients who achieved a DLQI=0” value [2, 12] was 37%. The “mean change in DLQI from baseline” value [2, 13] was −11.1, the “patients who achieved a DLQI=0” value [2, 13] was 79% and the “mean change in DLQI from baseline” value ([2]; patients with PASI<50, Week 60) was −6. The “patients with change from large/extremely large DLQI impact at baseline to no/small impact” value ([2]; placebo patients switched to adalimumab at week 12, week 24) was 67%, the “patients with change from large/extremely large DLQI impact at baseline to no/small impact” value ([2]; placebo patients switched to adalimumab at week 12, week 36) was 79% and the “patients with change from large/extremely large DLQI impact at baseline to no/small impact” value ([2]; placebo patients switched to adalimumab at week 12, week 60) was 71%. The “patients with change from large/extremely large DLQI impact at baseline to no/small impact” value ([2]; randomized to adalimumab, week 12) was 85%, the “Any infectious AE” value [3] was 51 (48) n (%) and the “Any infectious SAE” value [3] was 0 (0) n (%). The “Infectious AEs, Patients (%)” value [4] was 18%, the “Serious infectious AE, Patients (%)” value [4] was 1% and the “patients with serious infections” value [4] was 0.9%.
